{"source": "patent US10426388B2", "about": "“Prediction of tumor recurrence by measuring oxygen saturation” (THE GENERAL HOSPITAL CORPORATION, priority 2014, dated 2019)", "key": {"subcutaneous U87 tumors [1]": {"system": "subcutaneous U87 tumors", "assay": "Validation of tumor hypoxia with pimonidazole/CD31 immunofluorescence after BPD-PDT", "format": "in vivo, mice", "conditions": "1-hr DLI (responding group) compared with 3-hr DLI (non-responding) group", "text": "The inventors next validated the hypoxic conditions observed in photoacoustic images with pimonidazole stain for hypoxia. Gerling et al., Theranostics, 4(6):604-13 (2014). Tumors were sectioned in a similar orientation as the imaging cross-section. CD31 stain was utilized to depict the tumor vasculature while pimonidazole stained the hypoxic regions. In the 1-hr DLI group (FIGS. 8A-4D), Immunofluorescence (IF) images show hypoxia adjacent to the vasculature depicted by the CD31 stain. The hypoxia is due to the vascular damage caused by PDT and disruption of the blood flow in these vessels. Zoomed images of the H&E stain of the adjacent cross section show vascular congestions. […] It is also to be noted that the fluorescence of the pimonidazole stain is stronger in the 1-hr DLI (responding group) tumor than in the 3-hr DLI (non-responding) group given the severe hypoxic conditions created by PDT.\nImmunohistochemistry: An overview of the immunofluorescence staining protocol used in this study is published previously by the inventors. […] The slides were washed in PBS and secondary antibody (Donkey Anti-Goat IgG NL493 Affinity Purified PAb (R&D systems Inc) was applied for 2-hrs at room temperature. Finally the slides were washed and sealed with coverslip. A whole slide scanning fluorescence imaging system (Hamamatsu NanoZoomer 2.0-RS) at 40× magnification was used to image the slides."}, "subcutaneous U87 tumors [2]": {"system": "subcutaneous U87 tumors", "assay": "Longitudinal volume monitoring of subcutaneous U87 tumors after BPD-PDT", "format": "in vivo, mice", "text": "Chen et al., Int J Radiat Oncol Biol Phys., 61(4):1216-26 (2005); Chen et al., Crit Rev Eukaryot Gene Expr., 16(4):279-305 (2006). It was postulated in previous work that at 1-hr the PS localizes to both cellular and vascular compartments of the tumor while at 3-hrs, most of the PS is extra vascular and primarily cellular therefore less likely to impact the tumor oxygenation status. Iinuma et al., Cancer Research, 59(24):6164-70 (1999). […] Amongst the mice that underwent PDT with 1-hr DLI, there was no regrowth for ˜two weeks and at that point 35% of the mice started to show recurrence and an increase in tumor volume (FIG. 6, dashed line), while 65% mice had no palpable tumor 30 days post therapy (FIG. 6, solid line). To test if PAI could monitor the changes in StO2 in the tumor due to PDT, The inventors designated the 1-hr DLI group with a sustained absence of palpable tumors up to 30 days post treatment (FIG. 6, triangles joined by solid line) as the “PDT responding group” and the mice in the 3-hr DLI group (FIG. 6, squares joined by solid line) were considered the “PDT non-responding group”.\n(§1) Animal Model: All animal experiments were approved by the Subcommittee on Research Animal Care of Massachusetts General Hospital. Female athymic Swiss nude mice (Cox, Cambridge, Mass.), 8-10 weeks old, were anesthetized with isoflurane USP (Baxter, Deerfield, Ill.) and inoculated subcutaneously with 3×10^6 U87 cells in 300 μL, of Matrigel (BD Bioscience, San Jose, Calif.). Tumor volumes were measured using calipers by two researchers separately. Tumor volume was calculated using the formula; π/6×Length×Width×Height and photographs of the tumors were obtained.\n(§2) PDT Treatment: Mice were injected intravenously with 0.5 mg/kg of BPD-MA, then PDT was performed as follows. Mice were placed under the laser light source and covered with black cloth except tumor area. 1 or 3-hrs post injection, mice were irradiated with 100 J/cm^2 using a 690 nm laser diode source (Model 7401; Intense, North Brunswick, N.J.) at a fluence rate of 100 mW/cm^2 as measured via a VEGA laser power energy meter (Ophir Laser Measurement Group, LLC)."}, "subcutaneous U87 tumors [3]": {"system": "subcutaneous U87 tumors", "assay": "Photoacoustic imaging of tumor StO2 and HbT before and after BPD-PDT", "format": "in vivo, mice", "experimental": "StO2 and HbT content were measured in both the 1-hr DLI responding group and 3-hr DLI (nonresponders) group of mice (n=6 per group) at 4 time points (before PDT (Pre-PDT), immediately post-PDT, 6-hrs and 24-hrs post-PDT) to determine if PAI could predict treatment response. FIG. 7A and FIG. 7B show representative images of the change in StO2 and HbT content at various time points in a responding and non-responding tumor respectively. Ultrasound imaging identified region of interest (green ROI in FIGS. 7A and 7B is the tumor region). FIG. 7C and FIG. 7D represent the average of StO2 values and HbT values in the tumor ROI from ˜350 B-scans per mouse (6 mice in each group, ˜55-75 B-scans per 3D tumor volume). […] This phenomena is in agreement with the studies by Wang et al. and is attributed to cell death and a decrease in the metabolic consumption of oxygen in the tumor area. Wang et al., Cancer Research, 64(20):7553-61 (2004).\nas §1, §2\nUltrasound and Photoacoustic Imaging: Image acquisition and quantitation was performed using the ultrasound and photoacoustic imaging system (Vevo LAZR, FUJIFILM VisualSonics, Inc.). Light generated from a tunable laser operating at either 750 nm or 850 nm was delivered through fiber optic bundles integrated into a linear array transducer (LZ-250, 21 MHz). The Oxy-Hemo feature of the Vevo LAZR software was used to acquire the oxygen-saturation images. Mice were imaged under isoflurane. Physiological status (ECG, respiration, and body temperature) of the mice was closely monitored during image acquisition sessions. 3D ultrasound and photoacoustic images were acquired at a step size of 0.152 mm. The Vevo LAZR workstation software was utilized to mark the tumor region of interest and obtain the StO2 and HbT values for every B-scan. The workstation allowed export of the raw data. The raw data is processed using customized MATLAB routines and integrated with 3D visualization software AMIRA to obtain the prediction maps."}, "[4]": {"assay": "Photobleaching of BPD in phantom tubes by photoacoustic imaging (fluorescence before/after PAI)", "format": "physicochemical", "conditions": "fluorescence at 690 nm", "experimental": "The FDA approved photosensitizer Benzoporphryin derivative (BPD-MA) (Aveline et al., Photochemistry and Photobiology, 59(3):328-35 (1994)) with absorption peaks at […] was used for all PDT experiments. To achieve better depth of light penetration, 690 nm light was used for PDT. PAI was performed at 750 nm and 850 nm wavelength illumination to deduce StO2 from the oxygenated and deoxygenated hemoglobin signal as described by Needles et al. Needles et al., IEEE Trans Ultrason Ferroelectr Freq Control. 60(5):888-97 (2013). At these wavelengths, the absorbance of BPD is minimal (FIG. 5A). PAI was performed using pulsed nanosecond laser (10 nsec pulse width) illumination. […] Fluorescence imaging on the tubes were performed using a Maestro imaging system (CRI Inc.) with an excitation at 405 nm and emission at 690 nm.\nFluorescence imaging: Fluorescence images of two phantom tube (500 um inner diameter) containing phosphate buffered saline (PBS) and liposomal BPD were acquired using a CRi Maestro system. […] Fluorescence images at 690 nm were acquired. A custom Matlab routine was used to quantify fluorescence signals in the tubes. […] Fluorescence image of the tubes were acquired and the tubes were again irradiated with laser of the Vevo LAZR system operating at 690 nm (10 ns pulse width at 10 Hz, 44.5 mJ/cm^2 fluence). […]"}, "tumor": {"system": "tumor", "assay": "Tumor hypoxia/oxygenation after irinotecan detected by photoacoustic imaging", "format": "in vivo"}, "[5]": {"conditions": "responding 1-hr DLI group, 6-hrs post-PDT"}, "[6]": {"conditions": "responding 1-hr DLI group, 24-hrs post-PDT"}}, "note": "Where “and” joins values, the source holds several entries; their conditions need not be identical. Identical values can stand only once. Entries after “also recorded” stand apart in the source; their conditions may differ.", "data": [{"molecule": "benzoporphyrin derivative monoacid ring-A [BPD]", "values": [{"measurement": "fluorescence of the pimonidazole stain (hypoxia), 1-hr DLI tumor versus 3-hr DLI tumor", "setting": "subcutaneous U87 tumors [1]", "value": "stronger"}, {"measurement": "mice showing recurrence (local tumor recurrence)", "setting": "subcutaneous U87 tumors [2]; 1-hr DLI PDT", "value": "~35", "unit": "%"}, {"measurement": "time without regrowth", "setting": "subcutaneous U87 tumors [2]; 1-hr DLI PDT", "value": "two weeks"}, {"measurement": "mice with no palpable tumor", "setting": "subcutaneous U87 tumors [2]; 1-hr DLI PDT, 30 days post therapy", "value": 65, "unit": "%"}, {"measurement": "increase in tumor volume", "setting": "subcutaneous U87 tumors [2]; 3-hr DLI group, three weeks following PDT, 0.5 mg/kg BPD, 100 J/cm^2", "value": "approximately six-fold"}, {"measurement": "tumor volume difference versus no-treatment group", "setting": "subcutaneous U87 tumors [2]; 3-hr DLI group, p>0.05, Students t-test", "value": "no significant difference"}, {"measurement": "HbT value versus pre-PDT value", "setting": "subcutaneous U87 tumors [3]; 1-hr DLI group, 6-hrs post-PDT", "value": "significantly higher"}, {"measurement": "StO2 immediately post-PDT versus pre-PDT", "setting": "subcutaneous U87 tumors [3]; 1-hr DLI group, p<0.001", "value": "increase in oxygenation"}, {"measurement": "HbT signal at 6-hrs and 24-hrs post-PDT", "setting": "subcutaneous U87 tumors [3]; 3-hr DLI group", "value": "no statistical difference"}, {"measurement": "StO2 24-hrs post-PDT versus pre-PDT", "setting": "subcutaneous U87 tumors [3]; 3-hr DLI group", "value": "No statistically significant difference"}, {"measurement": "StO2 immediately post-PDT versus pre-PDT", "setting": "subcutaneous U87 tumors [3]; 3-hr DLI group", "value": "no statistically significant difference"}, {"measurement": "change in StO2 compared to pre-PDT StO2 value", "setting": "subcutaneous U87 tumors [3]; 3-hr DLI group, 6-hrs post-PDT", "value": "~18", "unit": "%"}, {"measurement": "StO2", "setting": "subcutaneous U87 tumors [3]; non-responding 3-hr DLI group, 6-hrs post-PDT", "value": "47.6%±13.4%"}, {"measurement": "StO2", "setting": "subcutaneous U87 tumors [3]; non-responding 3-hr DLI group, 24-hrs post-PDT", "value": "55.3%±11.6%"}, {"measurement": "StO2", "setting": "subcutaneous U87 tumors [3]; [5]", "value": "2.97±1.6% and 2.9%±1.6%"}, {"measurement": "decrease in StO2 relative to Pre-PDT value", "setting": "subcutaneous U87 tumors [3]; [5]", "value": "~95% and ~94.3%"}, {"measurement": "StO2", "setting": "subcutaneous U87 tumors [3]; [6]", "value": "8.03%±4.13%"}, {"measurement": "decrease in StO2 relative to pre-PDT value", "setting": "subcutaneous U87 tumors [3]; [6]", "value": "~85% and ~84.8%"}, {"measurement": "BPD fluorescence after PAI (photobleaching)", "setting": "[4]; PAI at 690 nm", "value": "significant decrease in the fluorescence; also recorded: reduced fluorescence"}, {"measurement": "BPD fluorescence signal after PAI compared to pre-imaging value", "setting": "[4]; PAI at 750 nm followed by 850 nm pulsed laser irradiation", "value": "no significant difference; also recorded: no significant change"}]}, {"molecule": "CCc1c2c(nc3ccc(OC(=O)N4CCC(N5CCCCC5)CC4)cc13)-c1cc3c(c(=O)n1C2)COC(=O)[C@]3(O)CC", "note": "[irinotecan]", "values": [{"measurement": "tumor oxygenation", "setting": "tumor; after irinotecan treatment, photoacoustic imaging", "value": "increases tumor oxygenation"}, {"measurement": "levels of hypoxia", "setting": "tumor; from 1 to 24 hours after treatment", "value": "steadily increasingly decrease"}]}]}
